Assay results as given in patent US7396844B1, “Benzamidine derivatives” (Ajinomoto Co., Inc., priority 1997, dated 2008).
Where two headings read alike, the source gives them in different places.

What was measured:
[1] = test system: blood plasma; experiment: Determination of blood anticoagulating activity by prothrombin time (PT); format: biochemical, human; set-up: key: -log of concentration doubling control PT
Protocol: The blood anticoagulating activity was determined by a prothrombin time (PT) determination method. The PT was determined as follows: The blood was taken from healthy people. […] The blood plasma was separated by the centrifugation. 5 μl of DMSO solution containing a test compound was added to 45 μl of the blood plasma. After the incubation at room temperature for 2 minutes, a test tube containing the blood plasma solution was placed in Sysmex CA-3000 fully automatic blood coagulation determination device (a product of Toa Medical Electronics Co., Ltd), and incubated at 37° C. for 3 minutes. […] PT was automatically determined with the device. A sample containing 5 μl of DMSO in place of the solution of the test compound was used as the control. The negative logarithm (PT2) of the concentration of the test compound which elongated PT of the control to the twice as long was determined, and employed as the index of the blood anticoagulating activity.

[2] = target: T1, human thrombin (Homo sapiens, UniProt P00734); experiment: Determination of thrombin-inhibiting activity; format: biochemical; details: same manner as Example 94
T1 construct: human thrombin (a product of SIGMA Co.); purchased SIGMA Co
Protocol: 130 μl of 100 mM Tris-HCl buffer adjusted to pH 8.4 was added to 10 μl of an aqueous solution of a test compound. Then 10 μl of a solution of human thrombin (a product of SIGMA Co.) adjusted to 2 units/ml with Tris-HCl buffer of pH 8.4 was added to the resultant mixture. […] The absorbance was determined and then the initial reaction rate was determined. A control was prepared in the same manner as that described above except that the solution of the compound to be tested was replaced with 10 μl of tris hydrochloride buffer adjusted to pH 8.4.

[3] = target: T2, activated human blood coagulation factor X (Homo sapiens, UniProt P00742); experiment: Determination of activity of inhibiting the activated blood coagulation factor X; format: biochemical; details: same manner as Example 93; for IC50: read-out: Activity of inhibiting activated blood coagulation factor X (pIC50) (converted)
T2 construct: purchased Enzyme Research Co
T2 sequence (P00742 235-488 limits assumed): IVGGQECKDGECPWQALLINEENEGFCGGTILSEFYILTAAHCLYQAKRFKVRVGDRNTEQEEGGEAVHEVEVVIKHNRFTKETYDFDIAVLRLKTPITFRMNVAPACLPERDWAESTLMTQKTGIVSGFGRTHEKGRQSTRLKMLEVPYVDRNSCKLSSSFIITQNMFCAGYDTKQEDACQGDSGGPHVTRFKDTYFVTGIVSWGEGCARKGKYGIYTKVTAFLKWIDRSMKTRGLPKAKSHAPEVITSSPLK
T2 sequence (P00742 41-179 partner limits assumed): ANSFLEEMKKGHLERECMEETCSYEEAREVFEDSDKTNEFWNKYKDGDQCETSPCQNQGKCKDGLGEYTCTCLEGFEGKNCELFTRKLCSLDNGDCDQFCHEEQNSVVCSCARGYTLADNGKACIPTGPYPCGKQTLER
Protocol: 130 μl of 100 mM Tris-HCl buffer adjusted to pH 8.4 was added to 10 μl of an aqueous solution of a compound to be tested. Then 10 μl of a 0.5 unit/ml solution of activated human blood coagulation factor X (a product of Enzyme Research Co.) in Tris-HCl buffer hydrochloride of pH 8.4 was added to the resultant mixture. After the incubation at room temperature for 10 minutes, 50 μl of a solution of N-benzoyl-L-isoleucyl-L-glutamyl-glycyl-L-arginyl-p-nitroanilide hydrochloride (a product of Peptide Institute, Inc.) adjusted to 0.8 mM with Tris-HCl buffer (pH 8.4) was added thereto. The absorbance was determined and then the initial reaction rate was determined. A control was prepared in the same manner as that described above except that the solution of the compound to be tested was replaced with 10 μl of Tris-HCl buffer adjusted to pH 8.4.

[4] = Table 3, same manner as Example 184, negative logarithm of concentration doubling PT
[5] = Table 3, read-out: Thrombin inhibiting activity (pIC50) (converted)
[6] = Table 2, negative logarithm of concentration that elongated PT of the control to twice as long, plasma of healthy people
[7] = Table 2, read-out: Thrombin-inhibiting activity (pIC50) (converted)

Row | SMILES | Blood anticoagulating activity (PT2) [1, 4] | Thrombin inhibiting activity (pIC50) ([2]; Table 3) | Activity of inhibiting activated blood coagulation factor X (pIC50) ([3]; Table 3) | IC50 [2, 5] | IC50 ([3]; Table 3) | Blood anticoagulating activity (PT2) [1, 6] | IC50 [2, 7] | IC50 ([3]; Table 2)
1 | CC(=N)N1CCC(Oc2ccc(C(=O)N[C@@H](COc3cc(C(=N)N)ccc3CC(=O)C(=O)O)CC(=O)O)cc2)CC1.O=C(O)C(F)(F)F.O=C(O)C(F)(F)F [Compound of Ex. 193, (3R)-4-[5-amidino-2-(2-carboxy-2-oxoethyl)phenoxy]-3-[4-(1-(1-iminoethyl)piperidyl-4-oxy)benzoylamino]butanoic acid bistrifluoroacetate] | 6.2 | 3.4 | 7.9 | – | – | – | – | –
2 | N=C(N)c1ccc(C(=O)N[C@@H](COc2cc(C(=N)N)ccc2CC(=O)C(=O)O)CC(=O)O)cc1.O=C(O)C(F)(F)F.O=C(O)C(F)(F)F [Compound of Ex. 186, (3R)-3-(4-amidinobenzoylamino)-4-[5-amidino-2-(2-carboxy-2-oxoethyl)phenoxy]butanoic acid bistrifluoroacetate] | 5.9 | – | – | 251 µM | 0.02 µM | – | – | –
3 | CC(=N)N1CCC(Oc2ccc(C[C@@H](COc3cccc(C(=N)N)c3)NS(=O)(=O)c3ccccc3)cc2)CC1.O=C(O)C(F)(F)F.O=C(O)C(F)(F)F [Compound of Ex. 158, 3-[(2S)-2-(benzenesulfonylamino)-3-[4-(1-acetimidoyl-4-piperidyloxy)phenyl]propoxy]benzamidine bistrifluoroacetate] | – | – | – | – | – | 6.2 | 50.1 µM | 0.158 µM
4 | CC(=N)N1CCC(Oc2ccc(C(=O)NCCOc3cccc(C(=N)N)c3)cc2)CC1.O=C(O)C(F)(F)F.O=C(O)C(F)(F)F [Compound of Ex. 99, N-[2-(3-amidinophenoxy)ethyl]-4-(1-acetimidoyl-4-piperidyloxy)benzamide bistrifluoroacetate] | – | – | – | – | – | 6.2 | 316 µM | 0.251 µM
5 | N=C(N)c1ccc(CC(=O)C(=O)O)c(OC[C@@H](CC(=O)O)NC(=O)c2ccc(C(=O)N3CCCC3)cc2)c1.O=C(O)C(F)(F)F [Compound of Ex. 191, (3R)-4-[5-amidino-2-(2-carboxy-2-oxoethyl)phenoxy]-3-[4-(pyrrolidine-1-carbonyl)benzoylamino]butanoic acid trifluoroacetate] | 6.0 | – | – | 200 µM | 0.00398 µM | – | – | –
6 | CC(=N)N1CCC(Oc2ccc(C[C@@H](CCc3cccc(C(=N)N)c3)NS(=O)(=O)c3ccccc3)cc2)CC1.O=C(O)C(F)(F)F.O=C(O)C(F)(F)F [Compound of Ex. 175, 3-[(3R)-3-(benzenesulfonylamino)-4-[4-(1-acetimidoyl-4-piperidyloxy)phenyl]butyl]benzamidine bistrifluoroacetate] | – | – | – | – | – | 5.9 | 63.1 µM | 0.251 µM
7 | N=C(N)c1ccc(CC(=O)C(=O)O)c(OC[C@@H](CC(=O)O)NC(=O)c2ccc(S(=O)(=O)N3CCCC3)cc2)c1.O=C(O)C(F)(F)F [Compound of Ex. 195, (3R)-4-[5-amidino-2-(2-carboxy-2-oxoethyl)phenoxy]-3-[4-(pyrrolidine-1-sulfonyl)benzoylamino]butanoic acid trifluoroacetate] | 5.9 | – | – | 31.6 µM | 0.0316 µM | – | – | –
8 | CC(=N)N1CCC(Oc2ccc(C[C@@H](COc3cccc(C(=N)N)c3)NS(=O)(=O)c3ccc(/C=C/C(=O)O)cc3)cc2)CC1.O=C(O)C(F)(F)F.O=C(O)C(F)(F)F [Compound of Ex. 171, (2E)-3-[4-[(2S)-1-[4-(1-acetimidoyl-4-piperidyloxy)phenyl]-3-(3-amidinophenoxy)-2-propylsulfamoyl]phenyl]acrylic acid bistrifluoroacetate] | – | – | – | – | – | 6 | 39.8 µM | 0.1 µM
9 | N=C(N)c1ccc(C(=O)NCCOc2cc(C(=N)N)ccc2CC(=O)C(=O)O)cc1 [Compound of Ex. 147, bistrifluoroacetate] | – | – | – | – | – | 6.5 | 20 µM | 0.0398 µM
10 | CC(=N)N1CCC(Oc2ccc(C[C@@H](COc3cccc(C(=N)N)c3)NS(=O)(=O)c3ccc(C(=O)O)cc3)cc2)CC1.O=C(O)C(F)(F)F.O=C(O)C(F)(F)F [Compound of Ex. 168, 4-[(2S)-1-[4-(1-acetimidoyl-4-piperidyloxy)phenyl]-3-(3-amidinophenoxy)-2-propylsulfamoyl]benzoic acid bistrifluoroacetate] | – | – | – | – | – | 6.2 | 79.4 µM | 0.0316 µM
